Measurements taken from PMC12627627 (Nature Communications, 2025).
Values joined by “and” are separate entries in the source; they are usually repeats but may differ in a detail not shown here. Equal values may be shown once.

Columns and labels:
RyR1 R2163C = biological target: T1, RyR1 R2163C (Oryctolagus cuniculus, UniProt P11716, R2163C); test: Time-lapse [Ca2+]ER measurement, HEK293 cells expressing RyR1 R2163C; type: cell-based; settings: for IC50: HEK293 cells stably expressing RyR1 R2163C, ER Ca2+ fluorescence, dose-dependent
T1 construct: expressed in transfected cells
Description: HEK293 cells stably expressing R-CEPIA1er and RyRs (WT RyR1, RyR1-W881A, RyR1-W995A, RyR1-R2163C, and WT RyR2)[26],[27] were used in this study. Briefly, the cells were seeded at a density of 2 × 10⁴ cells/well in a 96-well black, clear-bottom plate (Corning). Doxycycline (2 µg/mL) was added 12 h after seeding, and the medium was replaced 24 h later with HEPES-buffered Krebs solution (5 mM HEPES, pH 7.4; 140 mM NaCl; 5 mM KCl; 2 mM CaCl₂; 1 mM MgCl₂; and 11 mM glucose). Fluorescence measurements were conducted using a FlexStation 3 fluorometer (Molecular Devices) at 37 °C. The R-CEPIA1er was excited at 560 nm, emitted at 610 nm, and captured every 10 seconds over 300 seconds. […] The fluorescence changes (F/F₀) were calculated by dividing the average fluorescence of the last 100 seconds (F) by that of the first 100 seconds (F₀). All measurements were performed in triplicate.

RyR1-W995A R12 = biological target: T2, RyR1-W995A R12 (Homo sapiens, UniProt P21817, W995A); test: ITC, RyR1 R12 W995A; type: binding
T2 construct: RyR1 854–1054, RyR2 865–1065, RyR3 853–1053; made in house; host or cells: E. coli BL21 (DE3)
T2 sequence (P21817 854-1054 W995A): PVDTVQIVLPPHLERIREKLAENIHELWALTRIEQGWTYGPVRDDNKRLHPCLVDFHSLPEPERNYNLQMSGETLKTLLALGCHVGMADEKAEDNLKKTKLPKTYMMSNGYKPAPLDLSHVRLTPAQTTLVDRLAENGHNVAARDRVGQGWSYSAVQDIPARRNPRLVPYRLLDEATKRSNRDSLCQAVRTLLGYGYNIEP
Description: The plasmids were subsequently transformed into E. coli BL21 (DE3) cells (NEB, USA) and cultured in Luria-Bertani (LB) media at 37 °C. Protein expression was induced with 0.4 mM isopropyl β-D-thiogalactoside (IPTG) when the optical density (OD)600 reached ~0.8, followed by incubation at 18 °C for 12 h. The cells were harvested via centrifugation at 5,000 × g for 15 min at 4 °C and homogenized in Buffer A (10 mM HEPES, pH 7.4, 250 mM KCl) supplemented with 25 µg/mL DNaseI, 25 µg/mL lysozyme, 1 mM phenylmethylsulfonyl fluoride (PMSF), and 20 mM imidazole. The homogenate was centrifuged at 12,000 × g for 45 min, and the supernatant was filtered through a syringe filter (0.22 µm).
Purified R12 domain protein from the three RyR isoforms, fused with hexahistidine-tagged MBP (HMT-R12) was dialyzed overnight at 4 °C in ITC buffer (200 mM HEPES, pH 7.4, 150 mM KCl). ITC experiments were performed using a PEAQ-ITC instrument (Malvern, UK) at 25 °C with a stirring speed of 750 rpm. […] For the ternary binding experiments, 500 μM or 5 mM AMP-PCP/ADP was preincubated with both the titrants and titrates. […] The data was fit to a one-site fitting model after background buffer subtraction. The RyR1 R12 mutants were generated using a QuikChange mutagenesis kit (Stratagene) according to the manufacturer’s protocol, with primer sequences listed in Supplementary Table 3.

WT RyR1 = biological target: T3, WT RyR1 (Oryctolagus cuniculus, UniProt P11716); test: Ca2+-dependent [3H]ryanodine binding, microsomes; type: biochemical; settings: for [3H]ryanodine binding (B/Bmax): Fig. 5C source data, RI-2 100 μM, single replicates
T3 construct: expressed in transfected cells
Description: The assay was performed as previously described[44],[45] with minor modifications. Briefly, microsomes from HEK293 cells stably expressing WT RyR1 were incubated with 5 nM [³H]ryanodine for 5 h at 25 °C in a medium containing 0.17 M NaCl, 20 mM MOPSO (pH 7.0), 2 mM dithiothreitol, 1 mM β,γ-methyleneadenosine 5′-triphosphate, and free Ca²⁺ buffered with 10 mM EGTA at varying concentrations. Free Ca²⁺ levels were calculated using WEBMAXC […][46]. Protein-bound [³H]Ryanodine (B) was isolated by filtration through polyethyleneimine-treated GF/B filters (Whatman) using a Micro 96 Cell Harvester (Skatron Instruments). Nonspecific binding was assessed by adding 20 µM unlabeled ryanodine. The maximum binding capacity of [³H]ryanodine (Bmax) was determined via Scatchard plot analysis with various concentrations (3–20 nM) of [³H]ryanodine in a high-salt medium containing 1 M NaCl. The resulting B/Bmax values represent the average activity of the cells.

Compound: O=C1CN(/N=C/c2ncc(-c3ccc(Br)cc3)o2)C(=O)N1 [AZU, Azumolene]
- ER luminal [Ca2+] change (F/F0) (RyR1 R2163C; Fig. 1B source data, concentration 0.001 (unit not given), single replicates): 0.9854 and 0.9883 and 0.9973
- ER luminal [Ca2+] change (F/F0) (RyR1 R2163C; Fig. 1B source data, concentration 0.01 (unit not given), single replicates): 0.9658 and 0.9819 and 0.982
- ER luminal [Ca2+] change (F/F0) (RyR1 R2163C; Fig. 1B source data, concentration 0.05 (unit not given), single replicates): 1.099 and 1.026 and 0.9992
- ER luminal [Ca2+] change (F/F0) (RyR1 R2163C; Fig. 1B source data, concentration 0.1 (unit not given), single replicates): 1.103 and 1.117 and 1.012
- ER luminal [Ca2+] change (F/F0) (RyR1 R2163C; Fig. 1B source data, concentration 0.5 (unit not given), single replicates): 1.22 and 1.241 and 1.23
- ER luminal [Ca2+] change (F/F0) (RyR1 R2163C; Fig. 1B source data, concentration 1 (unit not given), single replicates): 1.3399 and 1.372 and 1.356
- ER luminal [Ca2+] change (F/F0) (RyR1 R2163C; Fig. 1B source data, concentration 5 (unit not given), single replicates): 1.6271 and 1.651 and 1.748
- ER luminal [Ca2+] change (F/F0) (RyR1 R2163C; Fig. 1B source data, concentration 10 (unit not given), single replicates): 1.557 and 1.7194 and 1.724
- ER luminal [Ca2+] change (F/F0) (RyR1 R2163C; Fig. 1B source data, concentration 50 (unit not given), single replicates): 1.618 and 1.707 and 1.756
- ER luminal [Ca2+] change (F/F0) (RyR1 R2163C; Fig. 1B source data, concentration 100 (unit not given), single replicates): 1.541 and 1.665 and 1.689
- IC50 (RyR1 R2163C): 0.41 µM
- binding to RyR1 R12 W995A by ITC (RyR1-W995A R12; in the presence of AMP-PCP or ADP): can no longer be detected
- binding to RyR1 R12 W995A by ITC (RyR1-W995A R12; no nucleotide): completely abolishes

Compound: O=C(C[C@@H](NCCCO)C(=O)O)Nc1ccc2ccccc2c1 [RI-2]
- [Ca2+]ER change (F/F0) (RyR1 R2163C; 100 µM compound, compared with 2.5% DMSO, Fig. S10 source data, single replicates): 1.393 and 1.514 and 1.475
- ER luminal [Ca2+] change (F/F0) (RyR1 R2163C; Fig. 5D source data, RyR1-R2163C, RI-2 0.1 uM, single replicates): 0.9503 and 1.0903 and 0.9717
- ER luminal [Ca2+] change (F/F0) (RyR1 R2163C; Fig. 5D source data, RyR1-R2163C, RI-2 0.5 uM, single replicates): 0.9981 and 0.9736 and 1.043
- ER luminal [Ca2+] change (F/F0) (RyR1 R2163C; Fig. 5D source data, RyR1-R2163C, RI-2 1 uM, single replicates): 1.073 and 0.9956 and 0.9903
- ER luminal [Ca2+] change (F/F0) (RyR1 R2163C; Fig. 5D source data, RyR1-R2163C, RI-2 5 uM, single replicates): 1.035 and 0.9806 and 0.9738
- ER luminal [Ca2+] change (F/F0) (RyR1 R2163C; Fig. 5D source data, RyR1-R2163C, RI-2 10 uM, single replicates): 1.082 and 1.203 and 1.117
- ER luminal [Ca2+] change (F/F0) (RyR1 R2163C; Fig. 5D source data, RyR1-R2163C, RI-2 25 uM, single replicates): 1.365 and 1.221 and 1.3399
- ER luminal [Ca2+] change (F/F0) (RyR1 R2163C; Fig. 5D source data, RyR1-R2163C, RI-2 50 uM, single replicates): 1.514 and 1.709 and 1.462
- ER luminal [Ca2+] change (F/F0) (RyR1 R2163C; Fig. 5D source data, RyR1-R2163C, RI-2 75 uM, single replicates): 1.641 and 1.709 and 1.614
- ER luminal [Ca2+] change (F/F0) (RyR1 R2163C; Fig. 5D source data, RyR1-R2163C, RI-2 100 uM, single replicates): 1.752 and 1.723 and 1.637
- IC50 (RyR1 R2163C): 28 µM
- effect on Ca2+-dependent [3H]ryanodine binding (WT RyR1; 100 uM RI-2): inhibitory effect
- [3H]ryanodine binding (B/Bmax) (WT RyR1; pCa 2.04): 0.002952 (2×) and 0.002725 and -0.000227
- [3H]ryanodine binding (B/Bmax) (WT RyR1; pCa 2.67): 0.005451 and 0.006359 and 0.002952 and 0.002725
- [3H]ryanodine binding (B/Bmax) (WT RyR1; pCa 3.39): 0.01453 and 0.0134 and 0.008857 (2×)
- [3H]ryanodine binding (B/Bmax) (WT RyR1; pCa 4.03): 0.02816 and 0.03452 and 0.02475 and 0.02703
- [3H]ryanodine binding (B/Bmax) (WT RyR1; pCa 4.66): 0.04474 and 0.04315 and 0.03702 and 0.03429
- [3H]ryanodine binding (B/Bmax) (WT RyR1; pCa 5.03): 0.04565 and 0.04292 and 0.03884 and 0.03702
- [3H]ryanodine binding (B/Bmax) (WT RyR1; pCa 5.42): 0.0293 and 0.03838 and 0.02362 and 0.0243
- [3H]ryanodine binding (B/Bmax) (WT RyR1; pCa 6): 0.009312 and 0.01272 and 0.009084 and 0.003634
- [3H]ryanodine binding (B/Bmax) (WT RyR1; pCa 6.54): 0.005678 and 0.003861 and -0.000454 and 0.00159
- [3H]ryanodine binding (B/Bmax) (WT RyR1; pCa 6.97): 0.004088 and 0.006813 and 0.002044 and 0.0009084
- [3H]ryanodine binding (B/Bmax) (WT RyR1; pCa 7.49): 0.001136 and 0.002044 (2×) and 0.001363
